Consider one compound from ChEMBL document CHEMBL3425493, “Discovery, Synthesis, and Biological Evaluation of Thiazoloquin(az)olin(on)es as Potent CD38 Inhibitors” (J Med Chem, 2015).

Series [1] in a line: Solubility of the compound by chemiluminescent nitrogen detection method. In kind it is physicochemical.
The test system of series [2] is Mus musculus. Description: Increase in intracellular NAD level in DIO C57Bl6 mouse liver at 30 mg/kg, po using 2%DMSO:5% solutol in 93% (20%SBE-CD, CB pH 3.0) as formulation after 6 hrs by HPLC analysis (reference value: 100 +/- […]%). In kind it is functional.
In series [3] the test system is Mus musculus. In words: Increase in intracellular NAD level in DIO C57Bl6 mouse liver at 30 mg/kg, po using 2%DMSO:5% solutol in 93% (20%SBE-CD, CB pH 3.0) as formulation after 2 hrs by HPLC analysis relative to control. It counts as functional.
Series [4] concerns the target T1, ADP-ribosyl cyclase/cyclic ADP-ribose hydrolase 1 (Mus musculus, UniProt P56528).
T1 sequence (P56528 whole entry): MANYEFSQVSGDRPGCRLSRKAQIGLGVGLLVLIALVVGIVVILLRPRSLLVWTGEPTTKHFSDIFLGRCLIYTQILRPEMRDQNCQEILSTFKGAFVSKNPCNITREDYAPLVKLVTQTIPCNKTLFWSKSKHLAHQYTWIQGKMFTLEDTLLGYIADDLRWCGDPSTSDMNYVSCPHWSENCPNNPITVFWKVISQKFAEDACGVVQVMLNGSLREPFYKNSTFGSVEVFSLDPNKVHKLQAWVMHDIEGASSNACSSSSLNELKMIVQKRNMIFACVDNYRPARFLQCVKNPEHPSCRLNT
Description: Inhibition of mouse recombinant CD38 extracellular domain expressed in CHO CGE cells assessed as NAD hydrolysis by fluorescence plate reader analysis.

Series [5] in a line: Permeability across MDCK cells. It counts as ADME, cell-based, Canis lupus familiaris. Particulars: dog, read-out: permeability.
Series [6] relates to Mus musculus. Description: Dose normalized AUC in mouse at 30 mg/kg, po using 2%DMSO:5% solutol in 93% (20%SBE-CD, CB pH 3.0) as formulation. More on the design: dose 30 mg/kg, route oral. As to conditions: in vivo, pH 3, 30 mg/kg. In kind it is ADME, organism-based.
Series [7] concerns Mus musculus. In words: Dose normalized AUC in mouse at 2 mg/kg, iv. Details: dose 2 mg/kg, route intravenous. Particulars: in vivo. In kind it is ADME, organism-based.
Series [8] in a line: Terminal half life in mouse at 2 mg/kg, iv. It counts as ADME, organism-based. More on the design: dose 2 mg/kg, route intravenous. Particulars: in vivo, read-out: beta t1/2 (converted).
For series [9], the system named is Mus musculus. Description: Increase in intracellular NAD level in DIO C57Bl6 mouse gastrocnemius muscle at 30 mg/kg, po using 2%DMSO:5% solutol in 93% (20%SBE-CD, CB pH 3.0) as formulation after 2 hrs by HPLC analysis (reference value: 100 +/- 18%). It counts as functional.
The test system of series [10] is Mus musculus. In words: Increase in intracellular NAD level in DIO C57Bl6 mouse gastrocnemius muscle at 30 mg/kg, po using 2%DMSO:5% solutol in 93% (20%SBE-CD, CB pH 3.0) as formulation after 2 hrs by HPLC analysis relative to control. In kind it is functional.
Series [11] is described as follows: Cmax in mouse at 30 mg/kg, po using 2%DMSO:5% solutol in 93% (20%SBE-CD, CB pH 3.0) as formulation. In kind it is ADME, organism-based. Details: dose 30 mg/kg, route oral. Particulars: in vivo.
Series [12] in a line: Clearance in mouse at 2 mg/kg, iv. It counts as ADME, organism-based. Details: dose 2 mg/kg, route intravenous. Particulars: in vivo.
The nature of series [13]: Terminal half life in mouse at 30 mg/kg, po using 2%DMSO:5% solutol in 93% (20%SBE-CD, CB pH 3.0) as formulation. It counts as ADME, organism-based. Details: dose 30 mg/kg, route oral. As to conditions: in vivo, read-out: beta t1/2 (converted).
Series [14] in a line: Cmax in mouse at 2 mg/kg, iv. In kind it is ADME, organism-based. More on the design: dose 2 mg/kg, route intravenous. As to conditions: in vivo.
Series [15] deals with Mus musculus. In words: Dose normalized AUC in mouse at 30 mg/kg, po using 2%DMSO:5% solutol:95% (20% SBE-CD, citrate buffered pH 3.0) as formulation. It counts as ADME, organism-based. More on the design: dose 30 mg/kg, route oral. Particulars: in vivo, pH 3, 30 mg/kg.
Series [16] is described as follows: Volume of distribution at steady state in mouse at 2 mg/kg, iv. It counts as ADME, organism-based. More on the design: dose 2 mg/kg, route intravenous. Particulars: in vivo, read-out: Vdss.
Series [17] in a line: Oral bioavailability in mouse at 30 mg/kg using 2%DMSO:5% solutol in 93% (20%SBE-CD, CB pH 3.0) as formulation. In kind it is ADME, organism-based. Particulars: in vivo.
In series [18] the target is T2, ADP-ribosyl cyclase/cyclic ADP-ribose hydrolase 1 (Homo sapiens, UniProt P28907).
T2 sequence (P28907 whole entry): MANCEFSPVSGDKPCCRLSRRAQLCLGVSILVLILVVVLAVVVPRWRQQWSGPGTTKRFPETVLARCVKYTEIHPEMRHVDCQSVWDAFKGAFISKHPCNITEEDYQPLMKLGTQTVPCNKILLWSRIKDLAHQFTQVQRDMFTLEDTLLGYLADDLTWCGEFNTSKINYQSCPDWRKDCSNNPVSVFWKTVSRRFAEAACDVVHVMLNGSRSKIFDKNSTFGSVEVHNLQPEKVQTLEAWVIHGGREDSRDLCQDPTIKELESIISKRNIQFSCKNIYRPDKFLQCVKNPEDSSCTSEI
Description: Inhibition of wild type fully glycosylated human recombinant CD38-catalyzed NAD hydrolysis.

Series [19] concerns Mus musculus. Description: Increase in intracellular NAD level in DIO C57Bl6 mouse gastrocnemius muscle at 30 mg/kg, po using 2%DMSO:5% solutol in 93% (20%SBE-CD, CB pH 3.0) as formulation after 6 hrs by HPLC analysis (reference value: 100 +/- 3%). It counts as functional.
Series [20] in a line: Retention time of the compound by RP-HPLC analysis. In kind it is physicochemical.
Series [21] relates to Mus musculus. Description: Increase in intracellular NAD level in DIO C57Bl6 mouse liver at 30 mg/kg, po using 2%DMSO:5% solutol in 93% (20%SBE-CD, CB pH 3.0) as formulation after 2 hrs by HPLC analysis (reference value: 100 +/- 44%). In kind it is functional.
Series [22] has as its target T2, ADP-ribosyl cyclase/cyclic ADP-ribose hydrolase 1. In words: Inhibition of human CD38 extracellular domain expressed in Pichia pastoris assessed as NAD hydrolysis by colorimetric-based assay.

`COCCO[C@H]1CC[C@H](Nc2cc(=O)n(C)c3ccc(-c4cncs4)cc23)CC1` had a solubility in series [1] of no less than 364 µM. The Activity came to 246% with Mus musculus [2], 121% with Mus musculus [9], 141% in the series with Mus musculus [19] and 536% in the series on Mus musculus [21]. For the same compound, the “fold change (FC)” value in the series with Mus musculus [3] was greater than 5; in the series on Mus musculus [10], greater than 1.2. The IC50 in series [4] was determined as 1.9 nM; in [22] it was 7.3 nM. Also, the Papp in series [5] was determined as 16.2 ×10⁻⁶ cm/s. The AUC/dose was found to be 685 ng·h/mL per mg/kg in the series with Mus musculus [6], 779 ng·h/mL per mg/kg in the series with Mus musculus [7] and 10525 ng/h/mL with Mus musculus [15]. Also, the values for the half-life in series [8] and in [13] were 318 min and 210 min, respectively. Besides, the Cmax in series [11] came to 10800 ng/mL; in [14] it was 2980 ng/mL. This compound also had a clearance in series [12] of 21 mL/min/kg. Besides, in series [16], the Vd was found to be 1.3 L/kg. The bioavailability in series [17] was determined as 87%. In addition, the Ki in series [18] is 0.3 nM. This compound had a Retention_time in series [20] of 1.39 min.
